Measurements: patent publication US11066414B2, “Cot modulators and methods of use thereof” (Gilead Sciences, Inc., priority 2015, dated 2021)
Like-named read-outs stand apart in the source and are kept apart here.

Tests used:
TNFα = assay: Cot Monocyte TNFα Cell Based Assay
Human Cot = Human Cot (Homo sapiens (Human), UniProt P41279); assay: High Throughput Cot Biochemical Assay; details: Cot HTRF (TR-FRET KinEASE) biochemical assay, 400 μM ATP
[1] = Homo sapiens, Monocyte, read-out: EC50 TNF, LPS-stimulated human monocytes, TNFα TR-FRET
[2] = read-out: EC50 TNF, LPS-stimulated human monocytes, TNFα TR-FRET

Chain of Human Cot (P41279 30-397): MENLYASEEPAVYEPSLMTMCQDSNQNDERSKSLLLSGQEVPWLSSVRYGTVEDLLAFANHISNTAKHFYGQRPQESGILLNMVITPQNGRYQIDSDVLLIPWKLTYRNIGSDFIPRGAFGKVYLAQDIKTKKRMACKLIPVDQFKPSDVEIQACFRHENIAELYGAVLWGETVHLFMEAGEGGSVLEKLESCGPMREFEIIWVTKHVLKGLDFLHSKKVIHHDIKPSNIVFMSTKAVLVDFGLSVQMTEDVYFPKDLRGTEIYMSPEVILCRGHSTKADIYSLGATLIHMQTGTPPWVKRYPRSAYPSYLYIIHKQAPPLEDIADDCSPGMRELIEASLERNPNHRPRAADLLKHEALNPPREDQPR

Row | Structure (SMILES) | EC50 (TNFα; [1]) | IC50 (Human Cot; IC50 HTRF) | EC50 (TNFα; [2]) | IC50 (Human Cot; read-out: IC50 HTRF)
1 | CC(C)(C)CNc1c(C#N)cnc2c(Cl)cc(N[C@H](c3cn(C(CF)CF)nn3)c3cccc4ncccc34)cc12 [Example 804, (S)-8-chloro-6-(((1-(1,3-difluoropropan-2-yl)-1H-1,2,3-triazol-4-yl)(quinolin-5-yl)methyl)amino)-4-(neopentylamino)quinoline-3-carbonitrile] | 0.137 µM | 0.009 µM |  | 
2 | COc1ccc([C@H](Nc2cc(Cl)c3ncc(C#N)c(NCC(C)(C)C)c3c2)c2cn(C3(C(F)(F)F)CC3)nn2)cn1 [Example 805, (S)-8-chloro-6-(((6-methoxypyridin-3-yl)(1-(1-(trifluoromethyl)cyclopropyl)-1H-1,2,3-triazol-4-yl)methyl)amino)-4-(neopentylamino)quinoline-3-carbonitrile] | 0.778 µM | 0.028 µM |  | 
3 | Cc1nnc(C2(n3cc([C@@H](Nc4cc(Cl)c5ncc(C#N)c(NCC(C)(C)C)c5c4)c4ccc(F)nc4C)nn3)CC2)o1 [Example 806, (S)-8-chloro-6-(((6-fluoro-2-methylpyridin-3-yl)(1-(1-(5-methyl-1,3,4-oxadiazol-2-yl)cyclopropyl)-1H-1,2,3-triazol-4-yl)methyl)amino)-4-(neopentylamino)quinoline-3-carbonitrile] | 0.028 µM | 0.003 µM |  | 
4 | COc1ccc2c([C@H](Nc3cc(C#N)c4ncc(C#N)c(NCC(C)(C)C)c4c3)c3cn(C4(C(F)(F)F)CC4)nn3)cccc2n1 [Example 811, (S)-6-(((2-methoxyquinolin-5-yl)(1-(1-(trifluoromethyl)cyclopropyl)-1H-1,2,3-triazol-4-yl)methyl)amino)-4-(neopentylamino)quinoline-3,8-dicarbonitrile] | 0.333 µM | 0.011 µM |  | 
5 | CC1(n2cc([C@@H](Nc3cc(C#N)c4ncc(C#N)c(NCC(C)(C)C(F)(F)F)c4c3)c3ccc(F)c4ncccc34)nn2)CC1 [Example 813, (S)-6-(((8-fluoroquinolin-5-yl)(1-(1-methylcyclopropyl)-1H-1,2,3-triazol-4-yl)methyl)amino)-4-((3,3,3-trifluoro-2,2-dimethylpropyl)amino)quinoline-3,8-dicarbonitrile] | 0.024 µM | 0.002 µM |  | 
6 | CC(C)(C)CNc1c(C#N)cnc2c(C#N)cc(N[C@H](c3cn(C45CC(C4)C5)nn3)c3ccc(F)c4ncccc34)cc12 [Example 814, (S)-6-(((1-(bicyclo[1.1.1]pentan-1-yl)-1H-1,2,3-triazol-4-yl)(8-fluoroquinolin-5-yl)methyl)amino)-4-(neopentylamino)quinoline-3,8-dicarbonitrile] | 0.016 µM | 0.002 µM |  | 
7 | CC(C)(C)CNc1c(C#N)cnc2c(C#N)cc(N[C@@H](c3ccc4cccnc4c3)c3cn(C4(C(F)F)CC4)nn3)cc12 [Example 818, (S)-6-(((1-(1-(difluoromethyl)-cyclopropyl)-1H-1,2,3-triazol-4-yl)(quinolin-7-yl)methyl)amino)-4-(neopentylamino)quinoline-3,8-dicarbonitrile] | 0.176 µM | 0.006 µM |  | 
8 | COc1nccc2c([C@H](Nc3cc(C#N)c4ncc(C#N)c(NCC(C)(C)C(F)(F)F)c4c3)c3cn(C4(C)CC4)nn3)cccc12 [Example 819, (S)-6-(((1-methoxylsoquinolin-5-yl)(1-(1-methylcyclopropyl)-1H-1,2,3-triazol-4-yl)methyl)amino)-4-((3,3,3-trifluoro-2,2-dimethylpropyl)amino)quinoline-3,8-dicarbonitrile] |  |  | 0.028 µM | 0.002 µM
9 | COc1nccc2c([C@H](Nc3cc(C#N)c4ncc(C#N)c(NCC(C)(C)C(F)(F)F)c4c3)c3cn(C45CC(C4)C5)nn3)cccc12 [Example 820, (S)-6-(((1-(bicyclo[1.1.1]pentan-1-yl)-1H-1,2,3-triazol-4-yl)(1-methoxylsoquinolin-5-yl)methyl)amino)-4-((3,3,3-trifluoro-2,2-dimethylpropyl)amino)quinoline-3,8-dicarbonitrile] |  |  | 0.033 µM | 0.003 µM
10 | CC(C)(C)CNc1c(C#N)cnc2c(C#N)cc(N[C@@H](c3ccc4nccn4c3)c3cn(C4(C(F)(F)F)CC4)nn3)cc12 [Example 822, (S)-6-((imidazo[1,2-a]pyridin-6-yl(1-(1-(trifluoromethyl)cyclopropyl)-1H-1,2,3-triazol-4-yl)methyl)amino)-4-(neopentylamino)quinoline-3,8-dicarbonitrile] | 0.687 µM | 0.01 µM |  | 
11 | COc1nccc2c([C@H](Nc3cc(C#N)c4ncc(C#N)c(NCC(C)(C)C)c4c3)c3cn(C(CF)CF)nn3)cccc12 [Example 825, (S)-6-(((1-(1,3-difluoropropan-2-yl)-1H-1,2,3-triazol-4-yl)(1-methoxylsoquinolin-5-yl)methyl)amino)-4-(neopentylamino)quinoline-3,8-dicarbonitrile] |  |  | 0.113 µM | 0.007 µM
12 | CC(C)(C)CNc1c(C#N)cnc2c(C#N)cc(N[C@@H](c3ccc(C#N)nc3)c3cn(C4(C(F)(F)F)CC4)nn3)cc12 [Example 826, (S)-6-(((6-cyanopyridin-3-yl)(1-(1-(trifluoromethyl)cyclopropyl)-1H-1,2,3-triazol-4-yl)methyl)amino)-4-(neopentylamino)quinoline-3,8-dicarbonitrile] | 1 µM | 0.051 µM |  | 
13 | Cc1nc(F)ccc1[C@H](Nc1cc(C#N)c2ncc(C#N)c(NCC(C)(C)C(F)(F)F)c2c1)c1cn(C(C)(C)C)nn1 [Example 827, (S)-6-(((1-(tert-butyl)-1H-1,2,3-triazol-4-yl)(6-fluoro-2-methylpyridin-3-yl)methyl)amino)-4-((3,3,3-trifluoro-2,2-dimethylpropyl)amino)quinoline-3,8-dicarbonitrile] | 0.038 µM | 0.002 µM |  | 
14 | Cc1ccc([C@H](Nc2cc(C#N)c3ncc(C#N)c(NCC(C)(C)C)c3c2)c2cn(C3(C(F)(F)F)CC3)nn2)cn1 [Example 828, (S)-6-(((6-methylpyridin-3-yl)(1-(1-(trifluoromethyl)cyclopropyl)-1H-1,2,3-triazol-4-yl)methyl)amino)-4-(neopentylamino)quinoline-3,8-dicarbonitrile] | 0.253 µM | 0.022 µM |  | 
15 | Cc1ccc([C@H](Nc2cc(C#N)c3ncc(C#N)c(NCC(C)(C)C)c3c2)c2cn(C3(C(F)F)CC3)nn2)c(C)n1 [Example 829, (S)-6-(((1-(1-(difluoromethyl)-cyclopropyl)-1H-1,2,3-triazol-4-yl)(2,6-dimethylpyridin-3-yl)methyl)amino)-4-(neopentylamino)quinoline-3,8-dicarbonitrile] | 0.066 µM | 0.004 µM |  | 
16 | Cc1nc(C#N)ccc1[C@H](Nc1cc(C#N)c2ncc(C#N)c(NCC(C)(C)C)c2c1)c1cn(C2(C(F)(F)F)CC2)nn1 [Example 830, (S)-6-(((6-cyano-2-methylpyridin-3-yl)(1-(1-(trifluoromethyl)cyclopropyl)-1H-1,2,3-triazol-4-yl)methyl)amino)-4-(neopentylamino)quinoline-3,8-dicarbonitrile] | 0.384 µM | 0.016 µM |  | 

Results, then the molecule that gave them:

Row | EC50 (TNFα; [1]) | IC50 (Human Cot; IC50 HTRF) | EC50 (TNFα; [2]) | IC50 (Human Cot; read-out: IC50 HTRF) | Structure (SMILES)
17 |  |  | 0.031 µM | 0.003 µM | COc1nccc2c([C@H](Nc3cc(C#N)c4ncc(C#N)c(NCC(C)(C)C)c4c3)c3cn(C45CC(C4)C5)nn3)cccc12 [Example 807, (S)-6-(((1-(bicyclo[1.1.1]pentan-1-yl)-1H-1,2,3-triazol-4-yl)(1-methoxylsoquinolin-5-yl)methyl)amino)-4-(neopentylamino)quinoline-3,8-dicarbonitrile]
18 |  |  | 0.029 µM | 0.003 µM | COc1nccc2c([C@H](Nc3cc(C#N)c4ncc(C#N)c(NCC(C)(C)C)c4c3)c3cn(C4CC4)nn3)cccc12 [Example 808, (S)-6-(((1-cyclopropyl-1H-1,2,3-triazol-4-yl)(1-methoxylsoquinolin-5-yl)methyl)airiino)-4-(neopentylamino)quinoline-3,8-dicarbonitrile]
19 |  |  | 0.032 µM | 0.003 µM | COc1nccc2c([C@H](Nc3cc(C#N)c4ncc(C#N)c(NCC(C)(C)C)c4c3)c3cn(C4(C)CC4)nn3)cccc12 [Example 809, (S)-6-(((1-methoxylsoquinolin-5-yl)(1-(1-methylcyclopropyl)-1H-1,2,3-triazol-4-yl)methyl)amino)-4-(neopentylamino)quinoline-3,8-dicarbonitrile]
20 |  |  | 0.054 µM | 0.004 µM | COc1nccc2c([C@H](Nc3cc(C#N)c4ncc(C#N)c(NCC(C)(C)C)c4c3)c3cn(C4(C(F)F)CC4)nn3)cccc12 [Example 810, (S)-6-(((1-(1-(difluoromethyl)-cyclopropyl)-1H-1,2,3-triazol-4-yl)(1-methoxylsoquinolin-5-yl)methyl)amino)-4-(neopentylamino)quinoline-3,8-dicarbonitrile]
21 |  |  | 0.068 µM | 0.005 µM | COc1nccc2c([C@H](Nc3cc(C#N)c4ncc(C#N)c(NCC(C)(C)C)c4c3)c3cn(C4(C(F)(F)F)CC4)nn3)cccc12 [Example 812, (S)-6-(((1-methoxylsoquinolin-5-yl)(1-(1-(trifluoromethyl)cyclopropyl)-1H-1,2,3-triazol-4-yl)methyl)amino)-4-(neopentylamino)quinoline-3,8-dicarbonitrile]
22 |  |  | 0.06 µM | 0.003 µM | COc1nccc2c([C@H](Nc3cc(C#N)c4ncc(C#N)c(NCC(C)(C)C(F)(F)F)c4c3)c3cn(C4(C(F)F)CC4)nn3)cccc12 [Example 821]
23 |  |  | 0.059 µM | 0.005 µM | COc1nccc2c([C@H](Nc3cc(C#N)c4ncc(C#N)c(NCC(C)(C)C)c4c3)c3cn([C@@H](C)CF)nn3)cccc12 [Example 824, 6-(((S)-(1-((S)-1-fluoropropan-2-yl)-1H-1,2,3-triazol-4-yl)(1-methoxylsoquinolin-5-yl)methyl)amino)-4-(neopentylamino)quinoline-3,8-dicarbonitrile]
